Columns and labels:
[1] = test system: 3T3-L1 white preadipocytes; assay: Artemether-induced browning of 3T3-L1 white preadipocytes during differentiation (morphology, UCP1 mRNA by Real time qPCR); assay type: cell-based; conditions: vs control, concentration-dependent tendency
Description: 2.5×10^5 3T3-L1 white preadipocytes were seeded in a 3.5 cm cell culture dish, and cultured for 3 days in a maintenance medium. Cells proliferated to contact inhibition. 48 hours after the contact inhibition was reached, the medium was changed to induced differentiation medium, and the induced differentiation mixture including 0.5 mMol/L 3-isobutyl-1-methylxanthine (Mix), 1 μMol/L dexamethasone (Dex) and 1 μg/ml insulin (Insulin) was added. The induced differentiation mixture is referred to as MDI for short. The day of adding MDI was defined as Day 0 of differentiation. After 2 days of culture in the above medium, fresh induced differentiation medium was replaced, and 1 μg/ml insulin was added to the medium. After another 2 days of culture, the fresh induced differentiation medium was replaced, and the medium was changed every other day until the culture was differentiated to Day 8. […]
3T3-L1 differentiated to mature was induced in a 3.5 cm culture dish, with the method of differentiation referring to Method 1.4.1. […] The precipitate was dissolved in 60 μl DEPC water, and quantified by Colibri Tepertec and stored at −80° C. […]
The relative amount of mRNA was calculated according to the AACT method, with 18S being used as an internal reference. […]

BMP4-directed C3H10T1/2 = assay: Artemisinin and analogues on BMP4-directed C3H10T1/2 (morphology, Western blot); assay type: cell-based; conditions: concentration shown in FIG. 8, from Day 0 of differentiation; vs control
Description: 4.3.1 Culture and Differentiation of C3H10T1/2 According to Method 2.4.1.
Artemisinin, artesunate and dihydroartemisinin were stored in DMSO at a storage concentration of 10 mMol/L. The concentration shown in FIG. 8 was added on Day 0 of differentiation. Fresh medium was replaced every two days, and the corresponding concentrations of compounds were added until the cells differentiated to mature.
The method for extracting C3H10T1/2 cell total protein was the same as 2.4.3;
Western blot method and catalog number of antibody was the same as 2.4.4.

high fat-fed mice [2] = assay: Subcutaneous artemether, cold exposure and UCP1 immunohistochemistry of subcutaneous fat in high fat-fed mice; assay type: in vivo, Male C57BL/6J mice; conditions: high-fat diet, subcutaneous injection, eight weeks
Description: The mice were breeded in the SPF animal laboratory of the Laboratory Animal Center of Fudan University at a room temperature of 21° C.-23° C. with a 12-hour light/dark cycle. […] When the mice were grown to 8-week old, they were randomly divided into a control group and an administration group, with 8 mice in each group. While the mice were fed with a high-fat diet, artemether was injected subcutaneously. Artemether was diluted in PBS at a concentration of […], and injected into bilateral inguinal region, with 200 μl being injected into each side. Mice in control group were injected with the same volume of PBS. Administration was continued for eight weeks. Mice were fasted and housed in a breeding box at 4° C. The rectal temperature was measured every 2 hours. The mice were sacrificed by cervical dislocation after 6 hours, and the inguinal fat was removed for histological analysis. The histological analysis including tissue fixation, paraffin embedding, sectioning and immunohistochemistry experiment of UCP1 was commissioned by Shanghai Saige Biotech Co., Ltd.

high fat-fed mice [3] = assay: Intraperitoneal artemether, adipose tissue in high fat-fed mice; assay type: in vivo, Male C57BL/6J mice; conditions: high-fat diet, intraperitoneal 20 mg/kg twice a week, eight weeks
Description: The mice were breeded in the SPF animal laboratory of the Laboratory Animal Center of Fudan University at a room temperature of 21° C.-23° C. with a 12-hour light/dark cycle. […] When the mice were grown to 8-week old, they were randomly divided into a control group and an administration group, with 8 mice in each group. While the mice were fed with a high-fat diet, artemether was injected intraperitoneally. Artemether for intraperitoneal injection was stored at 4° C. in coconut oil at a storage concentration of 6 mg/ml (20 mMol/L), and protected from light. Mice in administration group were injected with artemether at a dose of 20 mg/kg weight. Administration was twice a week for eight weeks. The mice were sacrificed by cervical dislocation and were dissected, and inguinal fat (Inguinal, subcutaneous fat), epididymal fat (Gonadal, visceral fat) and brown fat in the interscapular region (BAT, classic brown fat) were removed, weighed and fixed. The histological analysis of adipose tissue was commissioned by Shanghai Saige Biotech Co., Ltd., which included the steps of fixing, paraffin embedding, sectioning and HE staining.

high fat-fed mice [4] = assay: Intraperitoneal artemether, serum lipid indicators in high-fat diet mice; assay type: in vivo, Male C57BL/6J mice; conditions: intraperitoneal 20 mg/kg twice a week, eight weeks
Description: The mice were breeded in the SPF animal laboratory of the Laboratory Animal Center of Fudan University at a room temperature of 21° C.-23° C. with a 12-hour light/dark cycle. […] When the mice were grown to 8-week old, they were randomly divided into a control group and an administration group, with 8 mice in each group. While the mice were fed with a high-fat diet, artemether was injected intraperitoneally. Artemether for intraperitoneal injection was stored at 4° C. in coconut oil at a storage concentration of 6 mg/ml (20 mMol/L), and protected from light. Mice in administration group were injected with artemether at a dose of 20 mg/kg weight. Administration was twice a week for eight weeks.
The mice were anesthetized with 10% chloral hydrate and blood was taken from the orbit. The whole blood was centrifuged at 300 rpm for 5 min at 4° C.
Serum was taken and the serum indicators were measured by lipid calibrator Cfas Lipid, high-density lipoprotein Cfas, and low density lipoprotein Cfas, as well as detection kits for related indicators.

SMILES: CO[C@H]1O[C@@H]2O[C@@]3(C)CC[C@H]4[C@H](C)CC[C@@H]([C@H]1C)[C@@]24OO3 [artemether]
- mRNA level of UCP1 ([1]; 3T3-L1, different concentrations of ART, Real time qPCR, 18S reference): significantly up-regulated
- cell morphology of 3T3-L1 ([1]; artemether 5, 10 or from Day 0 of differentiation to maturity): exhibited typical brown adipocyte-like characteristics
- cell morphology of C3H10T1/2 (BMP4-directed C3H10T1/2): exhibited brown adipocyte-like characteristics
- body temperature in an environment of 4° C. (high fat-fed mice [2]): significantly higher than that of mice in control group
- UCP1 expression in subcutaneous fat (immunohistochemistry) (high fat-fed mice [2]; after 6 hours at 4° C.): exhibited significant UCP1 expression
- adipocyte size (sectioning and HE staining) (high fat-fed mice [3]): significantly smaller than that of mice in control group
- volume of adipose tissue (high fat-fed mice [3]): significantly smaller than that of mice in control group
- weight of adipose tissue (high fat-fed mice [3]): significantly smaller than that of mice in control group
- Serum cholesterol (high fat-fed mice [4]): significantly decreased
- high-density lipoprotein (HDL) in the serum (high fat-fed mice [4]): not different from the control group
- serum low density lipoprotein (LDL) (high fat-fed mice [4]): significantly decreased
- triglyceride in the serum (high fat-fed mice [4]): not different from the control group

Source: patent US20190133997A1, “ARTEMISININ ANALOG, AND USE, METHOD, AND COMPOSITION FOR PROMOTING LIPID CATABOLISM AND IMPROVING SUGAR METABOLISM” (FUDAN UNIVERSITY, priority 2016, published 2019)
